Measured values reported in patent US20040106635A1, “Spiroisoquinoline compound, a method for preparing the same and an intermediate thereof” (priority 2001, published 2004).

Legend:
guinea pig = experiment: Evaluation of evacuation-promoting activity (fecal pellets after clonidine); type: in vivo; settings: 15 min after clonidine 30 μg/kg i.p., minimum dose with more fecal pellets than control at one hour
Protocol: (Evaluation of Evacuation-Promoting Activity)
Male Hartley guinea pigs (Age: 4 to 5 weeks; n=6 to 10/group)
Each test drug was dissolved in distilled water. Hardly water-soluble test drugs were suspended in a 0.5% carboxymethyl cellulose solution. Dose of the test drug solution was 5 mL/kg.
Guinea pigs (2 animals/cage) were encaged and acclimatized for a few days prior to the examinations. Fifteen minutes after the administration of clonidine (30 μg/kg, i.p.), each test compound solution (5 mL/kg) was administered intraperitoneally or orally to the animals. One hour after the administration of the test compound, number of evacuated fecal pellets in each cage was measured and recorded. Effective dose of the test compound was determined as a minimum dose in which the number of evacuated fecal pellets was grater than that in control group (group of guinea pigs to which clonidine and vehicle of the test compound were administered d).

[1] = target: acetylcholinesterase (AChE) (Homo sapiens, UniProt P22303); experiment: Inhibitory activity on acetylcholinesterase (AChE), Ellman method; type: biochemical; settings: 25° C., pH 7.4, in the presence of 1% BSA, absorbance at 412 nm
Protocol: (Inhibitory Activity on acetylcholinesterase (AChE))
Each test drug was dissolved in distilled water containing 0.1% BSA (pH 7.4). Hardly water-soluble test drugs were dissolved in dimethylsulfoxide followed by being diluted with distilled water containing 0.1% BSA (pH 7.4).
Measurements of AChE activity were carried out according to the method described by Ellman et al (Biochem Pharmacol 7, 88-95, 1961). A solution of 12 mM 5,5,-dithiobis-(2-nitrobenzoic acid) (50 μL; final concentration: 0.3 mM), a solution of AChE (2-4 U/mL; 50 μL) and a test drug solution (50 μL) were added, in this order, to 110 mM phosphate buffer (1.8 mL; final concentration: 100 mM; pH 7.4) and the mixture was incubated for a predetermined period (3 to 60 minutes) at 25° C. After incubation, a solution of 20 mM acetylthiocholin iodide (50 μL; final concentration: 0.5 mM) was added to the mixture. Immediately after stirring the mixture, absorbance at 412 nm of the reaction mixture was measured. In terms of change in the absorbance per unit time (z,900 E/min), the AChE-inhibitory activity of the test drug (IC50) was calculated. Concomitantly, the measurements of the present experiment were carried out in the presence of 1% BSA.

[2] = target: SK channel (specific binding of 125I-apamine to the membrane); experiment: Assay of 125I-apamine-binding inhibition (competitive binding to colon membrane fraction); settings: guinea pig colon membrane 10 μg/mL, 125I-apamin 10 pM, 4° C., 60 minutes; read-out: 125I-apamine-binding inhibitory activity (IC50; μM)
Protocol: (Assay of ^125I-Apamine-Binding Inhibition)
Male Hartley guinea pigs (Age: 4 weeks or more)
Each test drug was dissolved in a buffer (5 mM Tris-HCl, 5.4 mM KC1, 0.1% bovine serum albumin (BSA), pH 7.4; This buffer is hereinafter referred as buffer (3)). Hardly water-soluble test drugs were dissolved in dimethylsulfoxide followed by being diluted with buffer (3).
The experiments were carried out according to the method described by Hugues et al (Life Sciences 31, 437-443, 1982) and Catterall et al (Journal of Biochemistry 254, 11379-11387, 1979).
The colon was isolated from guinea pigs and mucosal cells were removed therefrom. The colon was homogenized together with a buffer solution (1)(40 mM Tris-HCl, 8% sucrose, pH 7.4) and the homogenate was centrifuged at 130,000 g for 60 minutes. The pellet was suspended in the buffer solution (1) and the suspension was layered on top of a discontinuous sucrose gradient composed of 33% sucrose and 40% sucrose. After centrifugation at 160,000 g for 90 minutes, the 8/33%-layer was collected and suspended in a buffer solution (2)(5 mM Tris-HCl, pH 7.4). The suspension was further centrifuged at 160,000 g for 60 minutes. The resultant pellet was suspended in buffer (3) at a final concentration of 500 μg of membrane protein per mL and used for binding assay (If necessary, this suspension was frozen and stored in a liquid nitrogen).
The membrane (10 μg/mL), ^125I-apamin (10 pM) and a test drug solution were added to the buffer (3) and the mixture was incubated at 4° C. for 60 minutes. After incubation, the mixture was filtered through cell-harvester and the radioactivity of ^125I-apamin retained by the filter was counted with a gamma-counter. The inhibitory activity (IC50) of the test drug on specific binding of ^125I-apamine to the membrane was calculated. The binding level of ^125I-apamine in the presence of large excess(100 nM) of apamine was defined as non-specific binding of ^125I-apamin.

Sequence of acetylcholinesterase (AChE) (P22303 32-614, species assumed): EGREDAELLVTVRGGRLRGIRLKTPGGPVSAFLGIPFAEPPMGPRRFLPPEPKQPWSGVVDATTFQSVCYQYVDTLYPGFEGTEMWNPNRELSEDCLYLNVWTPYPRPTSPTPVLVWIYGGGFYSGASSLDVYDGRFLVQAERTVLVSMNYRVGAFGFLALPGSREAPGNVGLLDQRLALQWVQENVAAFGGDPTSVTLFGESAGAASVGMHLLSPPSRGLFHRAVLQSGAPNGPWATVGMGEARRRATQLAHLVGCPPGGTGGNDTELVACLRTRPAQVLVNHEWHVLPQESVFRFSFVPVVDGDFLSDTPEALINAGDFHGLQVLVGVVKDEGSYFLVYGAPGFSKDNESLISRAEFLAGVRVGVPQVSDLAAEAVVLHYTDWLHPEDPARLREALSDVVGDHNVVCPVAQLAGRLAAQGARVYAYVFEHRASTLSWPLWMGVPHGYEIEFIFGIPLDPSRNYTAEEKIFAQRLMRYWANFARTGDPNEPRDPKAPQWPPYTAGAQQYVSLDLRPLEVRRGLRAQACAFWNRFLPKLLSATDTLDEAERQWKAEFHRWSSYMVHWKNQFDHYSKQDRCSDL

CCN1CCc2cc(OC)c(OC)cc2[C@@H]1[C@H]1C[C@H](C(=O)N2CCN(c3ncnc4c3cnn4Cc3ccncc3)CC2)CC[C@]12c1cc(OC)c(OC)cc1CCN2C(=O)CCNC (racemic) [Example 165(2), (1R*,2R*(S),4R)-2′-[3-(methylamino)propionyl]-3′,4′-dihydro-6′,7′-dimethoxy-2-(2-ethyl-1,2,3,4-tetrahydro-6,7-dimethoxy-1-isoquinolyl)-4-[4-[1-(4-pyridylmethyl)-1H-pyrazolo[3,4-d]pyrimidin-4-yl]-1-piperazinyl]carbonyl-spiro[cyclohexane-1,1′(2′H)-isoquinoline]] was tested, and the “Evacuation-promoting activity in guinea pig (Effective dose: mg/kg i.p.)” value (guinea pig) was 0.01 mg/kg, the IC50 [1] was 0.002 µM and the IC50 [2] was 0.05 µM.
For CCC(=O)OCOC(=O)N(C)CCC(=O)N1CCc2cc(OC)c(OC)cc2[C@]12CC[C@@H](C(=O)N1CCN(c3ncnc4c3cnn4Cc3ccncc3)CC1)C[C@@H]2C1c2cc(OC)c(OC)cc2CCN1CC (relative stereo) [313 (1), (1R*,2R*(S*),4R*)-2′-[3-[N-(propionyloxymethyloxycarbonyl)-N-methylamino]propionyl]-3′,4′-dihydro-6′,7′-dimethoxy-2-(2-ethyl-1,2,3,4-tetrahydro-6,7-dimethoxy-1-isoquinolyl)-4-[4-[1-(4-pyridylmethyl)-1H-pyrazolo[3,4-d]pyrimidin-4-yl]-1-piperazinyl]carbonyl-spiro[cyclohexane-1,1′(2′H)-isoquinoline]], the “Evacuation-promoting activity in guine pig (Effective dose: mg/kg p.o.)” value (guinea pig) was 0.1 mg/kg.
In the case of CCC(=O)OCOC(=O)N(C)CCC(=O)N1CCc2cc(OC)c(OC)cc2[C@]12CC[C@@H](C(=O)N1CCN(c3ncnc4c3cnn4Cc3ccncc3)CC1)C[C@@H]2C1c2cc(OC)c(OC)cc2CCN1CC (relative stereo) [313 (2), (1R*,2R*(S*),4R*)-2′-[3-[N-(propionyloxymethyloxycarbonyl)-N-methylamino]propionyl]-3′,4′-dihydro-6′,7′-dimethoxy-2-(2-ethyl-1,2,3,4-tetrahydro-6,7-dimethoxy-1-isoquinolyl)-4-[4-[1-(4-pyridylmethyl)-1H-pyrazolo[3,4-d]pyrimidin-4-yl]-1-piperazinyl]carbonyl-spiro[cyclohexane-1,1′(2′H)-isoquinoline]], the “Evacuation-promoting activity in guine pig (Effective dose: mg/kg p.o.)” value (guinea pig) is reported as 0.1 mg/kg.
In the case of CCN1CCc2cc(OC)c(OC)cc2C1[C@H]1C[C@H](C(=O)N2CCN(c3ncnc4c3nnn4C)CC2)CC[C@]12c1cc(OC)c(OC)cc1CCN2C(=O)CCN(C)C(=O)OCOC(=O)C(C)(C)C (relative stereo) [315 (2), (1R*,2R*(S*),4R*)-2′-[3-[N-(pivaloyloxy-methyloxycarbonyl)-N-methylamino]propionyl]-3′,4′-dihydro-6′,7′-dimethoxy-2-(2-ethyl-1,2,3,4-tetrahydro-6,7-dimethoxy-1-isoquinolyl)-4-[4-[3-methyl-3H-1,2,3-triazolo[4,5-d]pyrimidin-7-yl]-1-piperazinyl]carbonyl-spiro[cyclohexane-1,1′(2′H)-isoquinoline]], the “Evacuation-promoting activity in guine pig (Effective dose: mg/kg p.o.)” value (guinea pig) is reported as 0.3 mg/kg.
In the case of CCCn1ncc2c(N3CCN(C(=O)[C@@H]4CC[C@]5(c6cc(OC)c(OC)cc6CCN5C(=O)CCN(C)C(=O)c5ccccc5COC(=O)c5ccccc5)[C@@H](C5c6cc(OC)c(OC)cc6CCN5CC)C4)CC3)ncnc21 (relative stereo) [386 (2), (1R*,2R*(S*),4R*)-2′-[3-[N-(2-benzoyloxymethylbenzoyl)-N-methylamino]-propionyl]-3′,4′-dihydro-6′,7′-dimethoxy-2-(2-ethyl-1,2,3,4-tetrahydro-6,7-dimethoxy-1-isoquinolyl)-4-[4-[1-propyl-1H-pyrazolo[3,4-d]pyrimidin-4-yl]-1-piperazinyl]carbonyl-spiro[cyclohexane-1,1′(2′H)-isoquinoline]], the “Evacuation-promoting activity in guine pig (Effective dose: mg/kg p.o.)” value (guinea pig) is reported as 1 mg/kg.
For COc1cc2c(cc1OC)C1(CCC(C(=O)N3CCN(c4ncnc5c4cnn5Cc4ccccn4)CC3)CC1)N(CCCN)CC2 (stereo not drawn) [282 (2)], the IC50 [2] was 0.02 µM.
CNCCCCN1CCc2cc(OC)c(OC)cc2C12CCC(C(=O)N1CCN(c3ncnc4c3cnn4Cc3ccccc3Cl)CC1)CC2 (stereo not drawn) [295 (4), (1α,4β)-2′-[4-(methylamino)butyl]-3′,4′-dihydro-6′,7′-dimethoxy-4-[4-[1-(2-chlorophenylmethyl)-1H-pyrazolo[3,4-d]pyrimidin-4-yl]-1-piperazinyl]carbonyl-spiro[cyclohexane-1,1′(2′H)-isoquinoline]] was tested, and the IC50 [1] was 0.02 µM.
CCCn1ncc2c(N3CCN(C(=O)C4CCC5(c6cc(OC)c(OC)cc6CCN5C(=O)CCNC)C(C5c6cc(OC)c(OC)cc6CCN5CC)C4)CC3)ncnc21 (stereo not drawn) [Example 236(2)] gave an IC50 [2] of 0.06 µM.
In the case of CCN1CCc2cc(OC)c(OC)cc2C1C1CC(C(=O)N2CCN(c3ncnc4c3nnn4C)CC2)CCC12c1cc(OC)c(OC)cc1CCN2C(=O)CCNC (stereo not drawn) [Example 241(2)], the “Evacuation-promoting activity in guinea pig (Effective dose: mg/kg i.p.)” value (guinea pig) is reported as 0.03 mg/kg and the IC50 [2] is reported as 0.01 µM.
